Patent US9296725B2, “Heterocyclyl pyrimidine analogues as TYK2 inhibitors” (Cellzome Limited, priority 2012, dated 2016)
Where two headings read alike, the source gives them in different places.

Experiments:
TYK2 = target: T1, TYK2 (Homo sapiens, UniProt P29597); test: Kinobeads assay, TYK2 (competition binding in mixed Molt4/Ramos cell lysate, dot blot detection)
T1 construct: endogenous in cells; host or cells: Molt4 (ATCC CRL-1582) and Ramos (ATCC CRL-1596), mixed lysate 1:2
Outline: (§1)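 JAK2 and TYK2 retained on Kinobeads (immobilized aminopyrido-pyrimidine ligand) from 1:2 Molt4:Ramos lysate (10 mg/mL) were quantified by antibody dot blot (Odyssey infrared) after 3 h cold incubation with compound. Nine-step 1:3 dilution series; IC50 calculated from curves.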

JAK2 = target: T2, JAK2 (Homo sapiens, UniProt O60674); test: Kinobeads assay, JAK2 (competition binding in mixed Molt4/Ramos cell lysate, dot blot detection); settings: read-out: JAK2 Band (Kinobeads assay potency, IC50)
T2 construct: endogenous in cells; host or cells: Molt4 (ATCC CRL-1582) and Ramos (ATCC CRL-1596), mixed lysate 1:2
Outline: as §1

[1] = Kinobeads assay, Molt4/Ramos lysate, read-out: TYK2 Band (Kinobeads assay potency, IC50)

T1 sequence (P29597 whole entry): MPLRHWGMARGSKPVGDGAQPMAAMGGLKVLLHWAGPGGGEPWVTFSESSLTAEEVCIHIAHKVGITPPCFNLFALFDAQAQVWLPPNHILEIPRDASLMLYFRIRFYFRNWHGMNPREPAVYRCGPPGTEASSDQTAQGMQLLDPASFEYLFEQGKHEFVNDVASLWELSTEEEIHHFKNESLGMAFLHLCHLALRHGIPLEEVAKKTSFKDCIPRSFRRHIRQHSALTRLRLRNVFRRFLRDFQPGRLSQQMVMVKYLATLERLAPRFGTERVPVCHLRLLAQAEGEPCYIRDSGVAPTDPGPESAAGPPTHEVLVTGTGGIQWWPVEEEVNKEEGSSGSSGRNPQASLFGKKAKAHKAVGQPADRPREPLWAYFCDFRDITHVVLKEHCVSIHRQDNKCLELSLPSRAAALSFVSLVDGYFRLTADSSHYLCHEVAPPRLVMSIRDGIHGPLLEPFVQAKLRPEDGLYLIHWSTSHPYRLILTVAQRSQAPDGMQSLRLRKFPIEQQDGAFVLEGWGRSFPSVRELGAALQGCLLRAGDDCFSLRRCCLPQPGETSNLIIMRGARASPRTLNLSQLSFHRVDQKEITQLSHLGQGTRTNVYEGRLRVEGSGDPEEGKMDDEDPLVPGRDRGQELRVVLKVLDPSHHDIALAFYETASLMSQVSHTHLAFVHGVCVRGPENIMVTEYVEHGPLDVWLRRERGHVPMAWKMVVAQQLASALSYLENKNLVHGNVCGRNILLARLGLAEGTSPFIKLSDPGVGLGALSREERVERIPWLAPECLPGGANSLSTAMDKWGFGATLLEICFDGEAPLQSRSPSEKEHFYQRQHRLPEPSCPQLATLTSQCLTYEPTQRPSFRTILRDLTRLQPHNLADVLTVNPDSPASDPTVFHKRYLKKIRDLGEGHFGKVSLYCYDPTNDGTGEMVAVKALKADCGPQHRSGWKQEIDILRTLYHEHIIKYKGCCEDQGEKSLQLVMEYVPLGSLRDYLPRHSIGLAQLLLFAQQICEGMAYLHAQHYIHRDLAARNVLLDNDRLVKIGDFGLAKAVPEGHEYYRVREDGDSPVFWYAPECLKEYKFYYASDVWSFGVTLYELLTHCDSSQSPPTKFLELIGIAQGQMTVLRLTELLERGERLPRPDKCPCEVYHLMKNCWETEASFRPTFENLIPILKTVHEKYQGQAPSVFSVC
T2 sequence (O60674 whole entry): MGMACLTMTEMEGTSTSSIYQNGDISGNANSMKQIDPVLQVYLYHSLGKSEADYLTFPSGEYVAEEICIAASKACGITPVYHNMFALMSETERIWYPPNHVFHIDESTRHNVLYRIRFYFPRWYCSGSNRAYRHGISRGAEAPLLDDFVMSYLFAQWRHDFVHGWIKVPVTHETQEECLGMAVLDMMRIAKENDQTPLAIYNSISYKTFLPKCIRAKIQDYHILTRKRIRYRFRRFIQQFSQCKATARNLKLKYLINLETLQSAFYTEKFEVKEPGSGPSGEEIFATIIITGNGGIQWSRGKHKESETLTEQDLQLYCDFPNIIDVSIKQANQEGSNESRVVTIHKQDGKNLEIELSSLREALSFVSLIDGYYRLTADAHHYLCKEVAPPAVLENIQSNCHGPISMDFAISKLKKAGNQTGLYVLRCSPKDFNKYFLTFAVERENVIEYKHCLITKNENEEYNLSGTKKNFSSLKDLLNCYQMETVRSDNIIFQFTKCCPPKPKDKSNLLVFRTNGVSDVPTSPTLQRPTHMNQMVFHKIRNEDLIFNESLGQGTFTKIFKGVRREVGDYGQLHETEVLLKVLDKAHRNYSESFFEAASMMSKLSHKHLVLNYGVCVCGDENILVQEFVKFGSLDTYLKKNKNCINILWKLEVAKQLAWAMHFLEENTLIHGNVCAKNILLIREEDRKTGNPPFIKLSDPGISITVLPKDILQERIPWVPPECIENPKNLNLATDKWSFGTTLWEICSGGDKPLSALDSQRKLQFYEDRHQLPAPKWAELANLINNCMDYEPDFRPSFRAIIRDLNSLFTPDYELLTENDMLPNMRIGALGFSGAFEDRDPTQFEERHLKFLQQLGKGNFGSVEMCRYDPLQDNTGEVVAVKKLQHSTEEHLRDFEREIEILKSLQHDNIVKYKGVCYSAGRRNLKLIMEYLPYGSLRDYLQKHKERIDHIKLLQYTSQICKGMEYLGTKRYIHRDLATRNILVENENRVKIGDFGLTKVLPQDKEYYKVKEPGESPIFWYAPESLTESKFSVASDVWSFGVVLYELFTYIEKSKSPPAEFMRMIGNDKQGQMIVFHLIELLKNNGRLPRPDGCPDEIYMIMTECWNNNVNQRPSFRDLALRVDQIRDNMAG

| Compound | IC50 (TYK2; [1]) [µM] | IC50 (JAK2) [µM] | IC50 (TYK2; read-out: TYK2 IC50) [µM] |
| --- | --- | --- | --- |
| [2H]C([2H])(O)C([2H])([2H])n1cc(Nc2ncc(Cl)c(NCc3ccccc3)n2)cn1 [Example I-231] | 0.1 to 1 | 1 to 10 |  |
| Cc1cnc(Nc2cnn(CC(=O)N[C@@H](C)CO)c2)nc1NCc1c(F)cc(F)cc1F [Example I-36] | ≤ 0.01 | 0.1 to 1 |  |
| CS(=O)(=O)c1ccc(F)c(CNc2nc(Nc3cnn(CC(N)=O)c3)ncc2F)c1 [Example I-116] | 0.01 to 0.1 | 1 to 10 |  |
| COc1c(F)cccc1CNc1nc(Nc2cnn(CC(=O)O)c2)ncc1Cl [Example I-403] | 0.1 to 1 | 1 to 10 |  |
| Cn1cc(Nc2ncc(Cl)c(NCc3cc(C(F)(F)F)ccc3F)n2)cn1 [Example I-277] | 0.1 to 1 | 1 to 10 |  |
| O=C(Cn1cc(Nc2ncc(Cl)c(NCc3ccccc3)n2)cn1)N1CC2CCC1CN2 (stereo not shown) [Example I-194] | 0.01 to 0.1 | 0.1 to 1 |  |
| O=C(Cn1cc(Nc2ncc(Cl)c(NCc3cccc(F)c3F)n2)cn1)N1CCOCC1 [Example I-178] | 0.01 to 0.1 | 0.1 to 1 |  |
| CC(C)CNC(=O)Cn1cc(Nc2ncc(Cl)c(NCc3cccc(OC(F)F)c3)n2)cn1 [Example I-392] | 0.01 to 0.1 | 1 to 10 |  |
| OCCn1cc(Nc2ncc(Cl)c(NCc3cccc(F)c3F)n2)cn1 [Example I-180] | 0.01 to 0.1 | 0.1 to 1 |  |
| CS(=O)(=O)NCc1cccc(CNc2nc(Nc3cnn(CC(N)=O)c3)ncc2Cl)c1 [Example I-397] | 0.1 to 1 | 1 to 10 |  |
| C[C@@H](CO)NC(=O)Cn1cc(Nc2nccc(NCc3c(F)cc(F)cc3F)n2)cn1 [Example I-75] | ≤ 0.01 | > 10 |  |
| Cc1cnc(Nc2cnn(CC(=O)NC3CC3)c2)nc1NCc1cc(F)cc(F)c1F [Example I-101] | 0.01 to 0.1 | 0.1 to 1 |  |
| CC(O)Cn1cc(Nc2ncc(Cl)c(NCc3cccc(F)c3)n2)cn1 (stereo not shown) [Example I-214] | 0.1 to 1 | 1 to 10 |  |
| COc1ccc(F)c(CNc2nc(Nc3cnn(CC(=O)OC(C)C)c3)ncc2F)c1F [Example I-47] | 0.01 to 0.1 | > 10 |  |
| Cc1cnc(Nc2cnn(CC(=O)NC3CC3)c2)nc1NCc1cc(F)cc(F)c1 [Example I-344] | 0.01 to 0.1 | 0.1 to 1 |  |
| OCCn1cc(Nc2ncc(Cl)c(NCc3ccccc3CO)n2)cn1 [Example I-357] | 0.1 to 1 | 1 to 10 |  |
| CC(C)NC(=O)Cn1cc(Nc2ncc(F)c(NCc3c(F)ccc(F)c3F)n2)cn1 [Example I-455] | ≤ 0.01 | 1 to 10 |  |
| OCCn1cc(Nc2ncc(Cl)c(NCc3ccc(O)cc3)n2)cn1 [Example I-219] | 0.01 to 0.1 | 0.1 to 1 |  |
| C[C@@H](CO)NC(=O)Cn1cc(Nc2nccc(NCc3c(Cl)ccc(Cl)c3F)n2)cn1 [Example I-121] | ≤ 0.01 | 0.1 to 1 |  |
| COc1ccc(S(C)(=O)=O)cc1CNc1nc(Nc2cnn(C)c2)ncc1Cl [Example I-449] | 0.01 to 0.1 | 0.1 to 1 |  |
| COc1ccc(S(C)(=O)=O)cc1CNc1nc(Nc2cnn(C)c2)ncc1F [Example I-446] | 0.01 to 0.1 | 1 to 10 |  |
| CC(C)NC(=O)Cn1cc(Nc2ncc(F)c(NCc3c(F)cc(F)cc3F)n2)cn1 [Example I-38] | ≤ 0.01 | 1 to 10 | < 0.1 |

| Compound | IC50 (TYK2; [1]) [µM] | IC50 (JAK2) [µM] | IC50 (TYK2; read-out: TYK2 IC50) [µM] |
| --- | --- | --- | --- |
| CC(C)NC(=O)Cn1cc(Nc2ncc(Cl)c(NCc3c(F)cc(F)cc3F)n2)cn1 [Example I-393] | 0.01 to 0.1 | > 10 |  |
| Fc1cccc(F)c1CNc1nc(Nc2cnn(CC(F)F)c2)ncc1Cl [Example I-469] | 0.1 to 1 | 0.1 to 1 |  |
| Cc1cnc(Nc2cnn(CC(F)F)c2)nc1NCc1ccc(S(N)(=O)=O)cc1 [Example I-465] | 0.1 to 1 | 1 to 10 |  |
| COc1ccc(F)c(CNc2nc(Nc3cnn(CC(=O)O)c3)ncc2F)c1F [Example I-426] | 0.01 to 0.1 | > 10 |  |
| NC(=O)Cn1cc(Nc2ncc(Cl)c(NCc3ccccc3)n2)cn1 [Example I-206] | 0.1 to 1 | 0.1 to 1 |  |
| O=C(Cn1cc(Nc2ncc(Cl)c(NCc3ccccc3)n2)cn1)N1CCCC1 [Example I-196] | 0.01 to 0.1 | 1 to 10 |  |
| CC(O)Cn1cc(Nc2ncc(Cl)c(NCc3ccccc3)n2)cn1 (stereo not shown) [Example I-216] | 0.1 to 1 | 1 to 10 |  |
| O=C(Cn1cc(Nc2nccc(NCc3c(F)cccc3Cl)n2)cn1)N[C@@H]1C[C@@H]1F [Example I-142] | 0.01 to 0.1 | 1 to 10 |  |
| CC(C)NC(=O)Cn1cc(Nc2nccc(NCc3c(F)cc(C#N)cc3F)n2)cn1 [Example I-1, 2-(4-((4-((4-cyano-2,6-difluorobenzyl)amino)pyrimidin-2-yl)amino)-1H-pyrazol-1-yl)-N-isopropylacetamide] | 0.01 to 0.1 | 1 to 10 |  |
| OCCn1cc(Nc2ncc(Cl)c(NCc3cc(Br)cc(F)c3F)n2)cn1 [Example I-264] | 0.1 to 1 | 0.1 to 1 |  |
| Cc1cccc(F)c1CNc1ccnc(Nc2cnn(CC(=O)N[C@@H](C)CO)c2)n1 [Example I-156] | ≤ 0.01 | 1 to 10 |  |
| O=C(Cn1cc(Nc2nccc(NCc3c(F)cc(F)cc3F)n2)cn1)NCCF [Example I-90] | 0.01 to 0.1 | 1 to 10 |  |
| C[C@@H](CO)NC(=O)Cn1cc(Nc2nccc(NCc3c(F)cncc3F)n2)cn1 [Example I-146] | 0.01 to 0.1 | > 10 |  |
| Cn1cc(Nc2nccc(NCc3c(F)cc(F)cc3F)n2)cn1 [Example I-310] | 0.1 to 1 | > 10 |  |
| O=C(Cn1cc(Nc2ncc(F)c(NCc3cccc(OC(F)F)c3)n2)cn1)N1CCOCC1 [Example I-44] | ≤ 0.01 | 1 to 10 |  |
| CNS(=O)(=O)c1cccc(CNc2nc(Nc3cnn(C)c3)ncc2Cl)c1 [Example I-200] | 0.1 to 1 | 1 to 10 |  |
| CS(=O)(=O)NCc1cccc(CNc2nc(Nc3cnn(CC(=O)N4CCC[C@@H]4C#N)c3)ncc2Cl)c1 [Example I-399] | 0.1 to 1 | 1 to 10 |  |
| CNC(=O)Cn1cc(Nc2ncc(C)c(NCc3c(F)cccc3F)n2)cn1 [Example I-419] | 0.01 to 0.1 | 0.1 to 1 |  |
| NC(=O)Cn1cc(Nc2ncc(Cl)c(NCc3cccnc3O)n2)cn1 [Example I-405] | 1 to 10 | 1 to 10 |  |
| OCCn1cc(Nc2ncc(Cl)c(NCc3cc(OC(F)F)ccc3F)n2)cn1 [Example I-413] | 0.01 to 0.1 | 0.1 to 1 |  |
| CC(C)NC(=O)Cn1cc(Nc2nccc(NCc3c(F)cc(F)cc3F)n2)cn1 [Example I-50] | 0.01 to 0.1 | 1 to 10 | < 0.1 |
| CC(NC(=O)Cn1cc(Nc2nccc(NCc3c(F)cc(F)cc3F)n2)cn1)C1CCCO1 (stereo not shown) [Example I-431] | 0.01 to 0.1 | > 10 |  |

| Compound | IC50 (TYK2; [1]) [µM] | IC50 (JAK2) [µM] | IC50 (TYK2; read-out: TYK2 IC50) [µM] |
| --- | --- | --- | --- |
| C[C@H](CO)NC(=O)Cn1cc(Nc2nccc(NCc3c(F)cccc3F)n2)cn1 [Example I-490] | 0.01 to 0.1 | 1 to 10 |  |
| CC(C)NC(=O)Cn1cc(Nc2ncc(F)c(NCc3c(F)cccc3F)n2)cn1 [Example I-66] | ≤ 0.01 | 1 to 10 |  |
| COc1ccc(F)c(CNc2ccnc(Nc3cnn(CC(=O)N[C@@H](C)CO)c3)n2)c1F [Example I-133] | ≤ 0.01 | 1 to 10 |  |
| CN(C)C(=O)Cn1cc(Nc2ncc(F)c(NCc3cc(F)cc(C(F)(F)F)c3)n2)cn1 [Example I-331] | 0.1 to 1 | 1 to 10 |  |
| OCCn1cc(Nc2ncc(F)c(NCc3cccc(F)c3F)n2)cn1 [Example I-170] | 0.1 to 1 | 1 to 10 |  |
| Cn1cc(Nc2ncc(Cl)c(NCc3cc(C(F)(F)F)ccc3Cl)n2)cn1 [Example I-278] | 0.1 to 1 | 1 to 10 |  |
| Cc1cnc(Nc2cnn(CCO)c2)nc1NCc1c(F)cccc1F [Example I-298] | ≤ 0.01 | 0.1 to 1 |  |
| CNC(=O)Cn1cc(Nc2ncc(Cl)c(NCc3c(F)cccc3F)n2)cn1 [Example I-229] | 0.01 to 0.1 | 1 to 10 |  |
| O=C(Cn1cc(Nc2ncc(F)c(NCc3c(Cl)cccc3Cl)n2)cn1)N1CCOCC1 [Example I-49] | 0.01 to 0.1 | 1 to 10 |  |
| CCOC(=O)Cn1cc(Nc2ncc(F)c(NCc3c(F)cc(F)cc3F)n2)cn1 [Example I-54, Ethyl 2-(4-((5-fluoro-4-((2,4,6-trifluorobenzyl)amino)pyrimidin-2-yl)amino)-1H-pyrazol-1-yl)acetate] | 0.01 to 0.1 | 1 to 10 |  |
| COc1cccc(CNc2nc(Nc3cnn(CC(=O)N(C)C)c3)ncc2Cl)c1 [Example I-244] | 0.1 to 1 | 1 to 10 |  |
| CC(C)NC(=O)Cn1cc(Nc2nccc(NCc3c(F)ccc(C#N)c3F)n2)cn1 [Example I-134] | ≤ 0.01 | 1 to 10 |  |
| OCCn1cc(Nc2ncc(Cl)c(NCc3cccc(C(F)F)c3)n2)cn1 [Example I-293] | 0.1 to 1 | 0.1 to 1 |  |
| O=C(Cn1cc(Nc2nccc(NCc3c(F)ccc(F)c3F)n2)cn1)NC1CC1 [Example I-144] | ≤ 0.01 | 1 to 10 |  |
| Fc1cccc(F)c1CNc1nc(Nc2cnn(Cc3ncco3)c2)ncc1Cl [Example I-481] | 0.1 to 1 | 1 to 10 |  |
| OCCn1cc(Nc2ncc(F)c(NCc3cc(F)ccc3F)n2)cn1 [Example I-203] | ≤ 0.01 | 0.01 to 0.1 |  |
| CNC(=O)Cn1cc(Nc2ncc(Cl)c(NCc3cccc(CS(C)(=O)=O)c3)n2)cn1 [Example I-445] | 0.1 to 1 | 1 to 10 |  |
| CNC(=O)Cn1cc(Nc2ncc(Cl)c(NCc3ccccc3S(=O)(=O)N(C)C)n2)cn1 [Example I-356] | 0.1 to 1 | 0.1 to 1 |  |
| CNC(=O)Cn1cc(Nc2ncc(Cl)c(NCc3ccccc3S(=O)(=O)NC)n2)cn1 [Example I-355] | 0.1 to 1 | 0.1 to 1 |  |
| Cn1cc(Nc2ncc(Cl)c(NCc3cc(Br)ccc3F)n2)cn1 [Example I-218] | 0.1 to 1 | 0.1 to 1 |  |
